Measurements from PubChem BioAssay (NCI).
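Each compound was tested at five concentrations against cells in 96-well plates for 48 hours. The concentration for 50% growth inhibition is given as GI50. Definition used: TGI = concentration required for complete inhibition of growth.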

Experiments:
Test in all cases: DTP human tumour cell line panel, 48 h
A498 renal = system: A498 renal
ACHN renal = system: ACHN renal
CCRF-CEM leukemia = system: CCRF-CEM leukemia
HCT-15 colon = system: HCT-15 colon
KM12 colon = system: KM12 colon
MALME-3M melanoma = system: MALME-3M melanoma
NCI-H226 lung = system: NCI-H226 lung
UO-31 renal = system: UO-31 renal
HOP-92 NSCLC = system: HOP-92 NSCLC
HCT-116 colon = system: HCT-116 colon

SMILES | TGI (A498 renal) [µM] | TGI (ACHN renal) [µM] | TGI (CCRF-CEM leukemia) [µM] | TGI (HCT-15 colon) [µM] | TGI (KM12 colon) [µM] | TGI (MALME-3M melanoma) [µM] | TGI (NCI-H226 lung) [µM] | TGI (UO-31 renal) [µM] | TGI (HOP-92 NSCLC) [µM] | TGI (HCT-116 colon) [µM] | GI50 (ACHN renal) [µM] | GI50 (CCRF-CEM leukemia) [µM] | GI50 (HCT-116 colon) [µM] | GI50 (HCT-15 colon) [µM] | GI50 (HOP-92 NSCLC) [µM] | GI50 (KM12 colon) [µM] | GI50 (UO-31 renal) [µM] | GI50 (MALME-3M melanoma) [µM] | GI50 (NCI-H226 lung) [µM] | GI50 (A498 renal) [µM]
CC(C(=O)c1ccc(Cl)cc1)C1OC(=O)C(Cl)=C1Cl (stereo not drawn) | > 100 | > 100 | 41.4 | 50.5 | > 100 | 41.7 | > 100 | > 100 |  |  |  |  |  |  |  |  |  |  |  | 
CC1CCP(=O)(c2ccccc2)CC1 (stereo not drawn) |  | > 100 | > 100 | > 100 | > 100 | > 100 |  | > 100 |  |  |  |  |  |  |  |  |  |  |  | 
CCCCN(CCCC)C(=O)C(=O)C(C)C(=O)CC (stereo not drawn) |  | > 100 |  | > 100 | > 100 | > 100 | > 100 | > 100 | > 100 |  |  |  |  |  |  |  |  |  |  | 
Cn1c2ccccc2c(=O)c2c([N+](=O)[O-])ccc(NCCN)c21 | 31 | 19.7 |  | 26.7 | 19.7 | 28.9 | 27.2 | 18.8 | 20.2 | 15.3 |  |  |  |  |  |  |  |  |  | 
C=CCC(N[C@H](CO)c1ccccc1)c1cn(S(=O)(=O)c2ccc(C)cc2)c2ccccc12 (stereo partly drawn) |  | 45.2 | 76.7 | 60.2 | 68.4 |  |  | > 100 | > 100 | 31.6 | 18 | 22.6 | 17 | 23.7 | 24.9 | 19.8 | 94.8 |  |  | 
C#Cc1cccc(Oc2ccc(NC(=O)CCl)cc2)c1 |  | > 82.5 | > 82.5 | > 82.5 | > 82.5 | > 82.5 | > 82.5 | > 82.5 | > 82.5 | > 82.5 | > 82.5 | 5.82 | 30.9 | 6.36 | > 82.5 | > 82.5 | > 82.5 | 37.3 | > 82.5 | 
CCCCCCCCCCCCCC(=O)C(C)N (stereo not drawn) |  | 20.7 | 27.2 | 4 | 15.5 | 29.3 | 44.3 | 24.2 | 19.2 | 18.7 | 6.74 | 8.35 | 5.27 | 0.917 | 5.71 | 3.71 | 10.5 | 14 | 21.8 | 
O=[N+]([O-])c1ccc(/C=C(/c2ccc([N+](=O)[O-])o2)S(=O)(=O)c2ccccc2)o1 |  | 8.69 |  | 26 | 32.6 | 7.45 | 3.65 | 16.3 | 27.8 | 3.08 |  |  |  |  |  |  |  |  |  | 
CCN(CC)CCOc1ccc2c(c1)C(=O)c1cc(OCCN(CC)CC)ccc1-2 | 37.5 | 46.5 | 21 | 44.6 | 24.9 | 33.6 | 34.2 | 26.3 |  | 15.2 | 5.92 | 4.81 | 3.45 | 12.1 |  | 5.36 | 3.52 | 15.6 | 11.7 | 16.5
N#C/C(N)=C(\C#N)N=Cc1csc2ccccc12 |  | > 100 | > 100 | > 100 | > 100 | > 100 | 76.3 | > 100 | > 100 | 83.6 | 29.9 | > 100 | 26.8 | 71.9 | 24.1 | > 100 | 91.2 | 50.9 | 19.4 | 
Cc1ccc2c(c1)O/C(=C\c1ccc([N+](=O)[O-])o1)C2=O | 18.6 | 2.53 | 2.61 | 1.54 | 3.4 | 4.6 |  | 3.46 | 2.76 | 1.32 | 1.19 | 0.424 | 0.373 | 0.393 | 1.14 | 1.7 | 1.18 | 2.42 |  | 3.77
CO[C@@]12C[C@H]3[C@@H]([C@@H](O)[C@@H](OC(=O)/C=C/c4ccccc4)[C@@]4(O)C(C)(C)CCC[C@]34C)[C@@H](C)C1=CC(=O)O2 | 26.3 | 17.8 |  | 19.2 | 28.6 |  | 18.8 | > 100 |  | > 100 | 4.16 |  | 8.8 | 4.51 |  | 6.74 | 16.6 |  | 4.76 | 11.3
CCCCCCCCCCCC(O)=C1C(=O)CC(O)CC1=O (stereo not drawn) |  | > 100 | > 100 |  | > 100 |  | > 100 | > 100 | > 100 | > 100 |  |  |  |  |  |  |  |  |  | 
